Results on 18 compounds are retold here after US20260193293A1, “PEPTIDES CAPABLE OF INHIBITING PROTEIN-PROTEIN INTERACTIONS AT GABAB1A SUBUNIT AND USES THEREOF” (UNIVERSITY OF COPENHAGEN, priority 2022, published 2026).

Residues, ends and D or L forms follow the SMILES beside them.

The first experiment addresses Sushi domains (SD1/2) protein. In words: Fluorescence polarization (FP) competition assay with AJAP-1probe, calculated Ki. Type of experiment: binding. The settings on record: Table 5, elongation and truncation scan of AJAP-1 binding epitope; read-out: Ki (nM) mean ± SEM. An outline of the steps:
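Ki values were derived from IC50s (sigmoidal fits, ≥ triplicate), with probe Kd obtained by saturation titration of SD1/2. Peptides displaced a 25 nM TAMRA-labelled probe; polarization read at 530/580 nm in 1% BSA-containing PBS, pH 7.4, room temperature.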
`CC[C@H](C)[C@H](NC(=O)[C@H](Cc1ccccc1)NC(C)=O)C(=O)N[C@@H](C)C(=O)N[C@@H](Cc1c[nH]c2ccccc12)C(=O)NCC(=O)N1CCC[C@H]1C(=O)N[C@H](C(=O)NCC(=O)N[C@@H](CC(=O)O)C(=O)N[C@@H](CCC(=O)O)C(=O)N[C@@H](CC(=O)O)C(N)=O)[C@@H](C)O` [FIAWGPTGDED] (Ac-FIAWGPTGDED-NH2): the Ki (commonly the equilibrium dissociation constant of an inhibitor or competing ligand from its target) is 118 ± 1 nM.
The same measure, in the same setting: under `CC[C@H](C)[C@H](NC(C)=O)C(=O)N[C@@H](C)C(=O)N[C@@H](Cc1c[nH]c2ccccc12)C(=O)NCC(=O)N1CCC[C@H]1C(=O)N[C@H](C(=O)NCC(=O)N[C@@H](CC(=O)O)C(=O)N[C@@H](CCC(=O)O)C(=O)N[C@@H](CC(=O)O)C(N)=O)[C@@H](C)O` [IAWGPTGDED] (Ac-IAWGPTGDED-NH2) stands 38000 ± 430 nM.

Staying with this experiment, now noted: Table 11, cells printed in μM; read-out: Ki (nM) mean ± SEM.
As to `CC[C@H](C)[C@H](NC(=O)[C@H](Cc1ccccc1)NC(=O)[C@H](CCC(=O)O)NC(=O)[C@@H](NC(=O)[C@H](CCC(=O)O)NC(C)=O)[C@@H](C)O)C(=O)N1CCC[C@H]1C(=O)N[C@@H](Cc1c[nH]c2ccccc12)C(=O)NCC(=O)N1CCC[C@H]1C(=O)N[C@H](C(=O)NCC(=O)N[C@@H](CC(=O)O)C(=O)N[C@@H](CCC(=O)O)C(=O)N[C@@H](CC(=O)O)C(N)=O)[C@@H](C)O` [ETEFIPWGPTGDED] (Ac-ETEFIPWGPTGDED-NH2), the inhibition constant (Ki) was greater than 6250 nM.
On the same count and under the same terms, the result for `CC[C@H](C)[C@H](NC(=O)[C@H](CCCCN)NC(=O)[C@H](CCC(=O)O)NC(=O)[C@@H](NC(=O)[C@H](CCC(=O)O)NC(C)=O)[C@@H](C)O)C(=O)N[C@@H](C)C(=O)N[C@@H](Cc1c[nH]c2ccccc12)C(=O)NCC(=O)N1CCC[C@H]1C(=O)N[C@H](C(=O)NCC(=O)N[C@@H](CC(=O)O)C(=O)N[C@@H](CCC(=O)O)C(=O)N[C@@H](CC(=O)O)C(N)=O)[C@@H](C)O` [ETEKIAWGPTGDED] (Ac-ETEKIAWGPTGDED-NH2) reads greater than 6250 nM.

The same experiment, now with this note: Table 11, deep mutational scanning validation variants of AJAP-1WT; read-out: Ki (nM) mean ± SEM.
Turning to `CC[C@H](C)[C@H](NC(=O)[C@H](Cc1ccccc1)NC(=O)[C@H](CCC(=O)O)NC(=O)[C@@H](NC(=O)[C@H](CCC(=O)O)NC(C)=O)[C@@H](C)O)C(=O)N[C@@H](C)C(=O)N[C@@H](Cc1c[nH]c2ccccc12)C(=O)NCC(=O)N1CCC[C@H]1C(=O)N[C@H](C(=O)N[C@@H](Cc1c[nH]cn1)C(=O)N[C@@H](CC(=O)O)C(=O)N[C@@H](CCC(=O)O)C(=O)N[C@@H](CC(=O)O)C(N)=O)[C@@H](C)O` [ETEFIAWGPTHDED] (Ac-ETEFIAWGPTHDED-NH2), the inhibition constant (Ki) is 30 ± 1 nM.
Still for that read-out and setting: under `CC[C@H](C)[C@H](NC(=O)[C@H](Cc1ccccc1)NC(=O)[C@H](CCC(=O)O)NC(=O)[C@@H](NC(=O)[C@H](CCC(=O)O)NC(C)=O)[C@@H](C)O)C(=O)N[C@@H](C)C(=O)N[C@@H](Cc1c[nH]c2ccccc12)C(=O)NCC(=O)N1CCC[C@H]1C(=O)N[C@H](C(=O)N[C@@H](CCCNC(=N)N)C(=O)N[C@@H](CC(=O)O)C(=O)N[C@@H](CCC(=O)O)C(=O)N[C@@H](CC(=O)O)C(N)=O)[C@@H](C)O` [ETEFIAWGPTRDED] (Ac-ETEFIAWGPTRDED-NH2) stands 32 ± 1 nM; under `CC[C@H](C)[C@H](NC(=O)[C@H](Cc1ccccc1)NC(=O)[C@H](CCC(=O)O)NC(=O)[C@@H](NC(=O)[C@H](CCC(=O)O)NC(C)=O)[C@@H](C)O)C(=O)N[C@@H](C)C(=O)N[C@@H](Cc1c[nH]c2ccccc12)C(=O)N[C@@H](Cc1c[nH]cn1)C(=O)N1CCC[C@H]1C(=O)N[C@H](C(=O)NCC(=O)N[C@@H](CC(=O)O)C(=O)N[C@@H](CCC(=O)O)C(=O)N[C@@H](CC(=O)O)C(N)=O)[C@@H](C)O` [ETEFIAWHPTGDED] (Ac-ETEFIAWHPTGDED-NH2), 240 ± 7 nM.
Consider `CC[C@H](C)[C@H](NC(=O)[C@H](Cc1ccccc1)NC(=O)[C@H](CCC(=O)O)NC(=O)[C@@H](NC(=O)[C@H](CCC(=O)O)NC(C)=O)[C@@H](C)O)C(=O)N[C@@H](C)C(=O)N[C@@H](Cc1c[nH]c2ccccc12)C(=O)N[C@@H](Cc1ccc(O)cc1)C(=O)N1CCC[C@H]1C(=O)N[C@H](C(=O)NCC(=O)N[C@@H](CC(=O)O)C(=O)N[C@@H](CCC(=O)O)C(=O)N[C@@H](CC(=O)O)C(N)=O)[C@@H](C)O` [ETEFIAWYPTGDED] (Ac-ETEFIAWYPTGDED-NH2), for which the Ki was 199 ± 10 nM.
In the case of `CC[C@H](C)[C@H](NC(=O)[C@H](Cc1ccccc1)NC(=O)[C@H](CCC(=O)O)NC(=O)[C@@H](NC(=O)[C@H](CCC(=O)O)NC(C)=O)[C@@H](C)O)C(=O)N[C@@H](Cc1c[nH]cn1)C(=O)N[C@@H](Cc1c[nH]c2ccccc12)C(=O)NCC(=O)N1CCC[C@H]1C(=O)N[C@H](C(=O)NCC(=O)N[C@@H](CC(=O)O)C(=O)N[C@@H](CCC(=O)O)C(=O)N[C@@H](CC(=O)O)C(N)=O)[C@@H](C)O` [ETEFIHWGPTGDED] (Ac-ETEFIHWGPTGDED-NH2), the inhibitory constant (Ki) is 24 ± 1 nM.
Still for that read-out and setting: under `CC[C@H](C)[C@H](NC(=O)[C@H](Cc1ccccc1)NC(=O)[C@H](CCC(=O)O)NC(=O)[C@@H](NC(=O)[C@H](CCC(=O)O)NC(C)=O)[C@@H](C)O)C(=O)N[C@H](C(=O)N[C@@H](Cc1c[nH]c2ccccc12)C(=O)NCC(=O)N1CCC[C@H]1C(=O)N[C@H](C(=O)NCC(=O)N[C@@H](CC(=O)O)C(=O)N[C@@H](CCC(=O)O)C(=O)N[C@@H](CC(=O)O)C(N)=O)[C@@H](C)O)C(C)C` [ETEFIVWGPTGDED] (Ac-ETEFIVWGPTGDED-NH2) stands 30 ± 1 nM; under `CC[C@H](C)[C@H](NC(=O)[C@H](Cc1c[nH]c2ccccc12)NC(=O)[C@H](CCC(=O)O)NC(=O)[C@@H](NC(=O)[C@H](CCC(=O)O)NC(C)=O)[C@@H](C)O)C(=O)N[C@@H](C)C(=O)N[C@@H](Cc1c[nH]c2ccccc12)C(=O)NCC(=O)N1CCC[C@H]1C(=O)N[C@H](C(=O)NCC(=O)N[C@@H](CC(=O)O)C(=O)N[C@@H](CCC(=O)O)C(=O)N[C@@H](CC(=O)O)C(N)=O)[C@@H](C)O` [ETEWIAWGPTGDED] (Ac-ETEWIAWGPTGDED-NH2), 35 ± 2 nM.
The same measure, in the same setting: the result for `CC[C@H](C)[C@H](NC(=O)[C@H](Cc1ccc(O)cc1)NC(=O)[C@H](CCC(=O)O)NC(=O)[C@@H](NC(=O)[C@H](CCC(=O)O)NC(C)=O)[C@@H](C)O)C(=O)N[C@@H](C)C(=O)N[C@@H](Cc1c[nH]c2ccccc12)C(=O)NCC(=O)N1CCC[C@H]1C(=O)N[C@H](C(=O)NCC(=O)N[C@@H](CC(=O)O)C(=O)N[C@@H](CCC(=O)O)C(=O)N[C@@H](CC(=O)O)C(N)=O)[C@@H](C)O` [ETEYIAWGPTGDED, Ac-ETEYIAWGPTGDED-NH2] (Ac-ETEYIAWGPTGDED-NH2) reads 18 ± 1 nM; that for `CC[C@H](C)[C@H](NC(=O)[C@H](Cc1ccccc1)NC(=O)[C@H](Cc1c[nH]cn1)NC(=O)[C@@H](NC(=O)[C@H](CCC(=O)O)NC(C)=O)[C@@H](C)O)C(=O)N[C@@H](C)C(=O)N[C@@H](Cc1c[nH]c2ccccc12)C(=O)NCC(=O)N1CCC[C@H]1C(=O)N[C@H](C(=O)NCC(=O)N[C@@H](CC(=O)O)C(=O)N[C@@H](CCC(=O)O)C(=O)N[C@@H](CC(=O)O)C(N)=O)[C@@H](C)O` [ETHFIAWGPTGDED], 58 ± 4 nM; that for `CC[C@H](C)[C@H](NC(=O)[C@H](Cc1ccccc1)NC(=O)[C@H](CO)NC(=O)[C@@H](NC(=O)[C@H](CCC(=O)O)NC(C)=O)[C@@H](C)O)C(=O)N[C@@H](C)C(=O)N[C@@H](Cc1c[nH]c2ccccc12)C(=O)NCC(=O)N1CCC[C@H]1C(=O)N[C@H](C(=O)NCC(=O)N[C@@H](CC(=O)O)C(=O)N[C@@H](CCC(=O)O)C(=O)N[C@@H](CC(=O)O)C(N)=O)[C@@H](C)O` [ETSFIAWGPTGDED] (Ac-ETSFIAWGPTGDED-NH2), 34 ± 1 nM.
As to `CC[C@H](C)[C@H](NC(=O)[C@H](Cc1ccccc1)NC(=O)[C@H](CCC(=O)O)NC(=O)[C@@H](NC(=O)[C@H](CCC(=O)O)NC(C)=O)C(C)C)C(=O)N[C@@H](C)C(=O)N[C@@H](Cc1c[nH]c2ccccc12)C(=O)NCC(=O)N1CCC[C@H]1C(=O)N[C@H](C(=O)NCC(=O)N[C@@H](CC(=O)O)C(=O)N[C@@H](CCC(=O)O)C(=O)N[C@@H](CC(=O)O)C(N)=O)[C@@H](C)O` [EVEFIAWGPTGDED] (Ac-EVEFIAWGPTGDED-NH2), the Ki was 28 ± 1 nM.
Still for that read-out and setting: under `CC[C@H](C)[C@H](NC(=O)[C@H](Cc1ccccc1)NC(=O)[C@H](CCC(=O)O)NC(=O)[C@@H](NC(=O)[C@H](CC(N)=O)NC(C)=O)[C@@H](C)O)C(=O)N[C@@H](C)C(=O)N[C@@H](Cc1c[nH]c2ccccc12)C(=O)NCC(=O)N1CCC[C@H]1C(=O)N[C@H](C(=O)NCC(=O)N[C@@H](CC(=O)O)C(=O)N[C@@H](CCC(=O)O)C(=O)N[C@@H](CC(=O)O)C(N)=O)[C@@H](C)O` [NTEFIAWGPTGDED] (Ac-NTEFIAWGPTGDED-NH2) stands 62 ± 3 nM.

Staying with this experiment, now noted: Table 13, peptides for affinity maturation; read-out: Ki (nM) mean ± SEM.
`CC[C@H](C)[C@H](NC(=O)[C@H](Cc1ccccc1)NC(=O)[C@H](CCC(=O)O)NC(=O)[C@@H](NC(=O)[C@H](CCC(=O)O)NC(C)=O)[C@@H](C)O)C(=O)N[C@@H](C)C(=O)N[C@@H](Cc1c[nH]c2ccccc12)C(=O)NCC(=O)N1CCC[C@H]1C(=O)N[C@H](C(=O)N[C@H](C(=O)N[C@@H](CO)C(=O)N[C@@H](CCCNC(=N)N)C(=O)N[C@@H](CCC(=O)O)C(=O)N[C@@H](CC(=O)O)C(N)=O)C(C)C)[C@@H](C)O` [ETEFIAWGPTVSRED] (Ac-ETEFIAWGPTVSRED-NH2): the Ki is 148 ± 6 nM.
Still for that read-out and setting: under `CC[C@H](C)[C@H](NC(=O)[C@H](Cc1ccccc1)NC(=O)[C@H](CCC(=O)O)NC(=O)[C@@H](NC(=O)[C@H](CCC(=O)O)NC(C)=O)[C@@H](C)O)C(=O)N[C@@H](C)C(=O)N[C@@H](Cc1c[nH]c2ccccc12)C(=O)N[C@@H](Cc1ccc(O)cc1)C(=O)NCC(=O)N1CCC[C@H]1C(=O)N[C@H](C(=O)NCC(=O)N[C@@H](CC(=O)O)C(=O)N[C@@H](CCC(=O)O)C(=O)N[C@@H](CC(=O)O)C(N)=O)[C@@H](C)O` [ETEFIAWYGPTGDED] (Ac-ETEFIAWYGPTGDED-NH2) stands 195 ± 7 nM.
The same measure, in the same setting: the result for `CC[C@H](C)[C@H](NC(=O)[C@H](Cc1ccccc1)NC(=O)[C@H](CCC(=O)O)NC(=O)[C@@H](NC(=O)[C@H](CCC(=O)O)NC(C)=O)[C@@H](C)O)C(=O)N[C@@H](C)C(=O)N[C@@H](Cc1c[nH]c2ccccc12)C(=O)N[C@@H](Cc1ccc(O)cc1)C(=O)N1CCC[C@H]1C(=O)N[C@H](C(=O)NCC(=O)N[C@@H](CC(=O)O)C(=O)N[C@@H](CCC(=O)O)C(=O)N[C@@H](CC(=O)O)C(N)=O)[C@@H](C)O` [ETEFIAWYPTGDED] (Ac-ETEFIAWYPTGDED-NH2) reads 199 ± 10 nM.
